Measurements reported in article PMC8043168, “Tribolium castaneum defensin 1 kills Moraxella catarrhalisin an in vitro infection model but does not harm commensal bacteria” (Virulence, 2021).
Values after ≈ are worked out from the molar mass of the structure shown. Ends that are not written are not given here.

System: mice
Details: dose of 10 mg/kg; cited from earlier work

| Compound | acute toxicity in mice |
| --- | --- |
| GWLKKIGKKIERVGQHTRDATIQTIGVAQQAANVAATLKG-NH2 [Sarcotoxin 1 C] | no acute toxicity |

System: M. catarrhalis
Assay type: cell-based, Moraxella catarrhalis
Details: 12 h
Description: Colonies of M. catarrhalis were grown on sheep blood agar plates for 12 h at 37°C and 5% CO2 before transfer to brain heart infusion (BHI) medium (Carl Roth, Karlsruhe, Germany) at an initial concentration of 1.6 × 10^7 cells/ml (OD600 = 0.08) as determined using an Ultraspec 10 cell densitometer (Amersham BioSciences, Little Chalfont, UK). Bacteria were cultivated in a shaking incubator at 37°C until the concentration reached 1.2 × 10^8 cells/ml (OD600 = 0.6) and then diluted to 2 × 10^6 cells/ml (OD600 = 0.011). To establish the optimal concentration ranges for AMP activity, defensin 1 was prepared as a two-fold dilution series from 12.5 µM to 1.56 µM and was added to the bacterial cultures, which were incubated as above for a further 16 h. Untreated cultures were used as controls. The OD600 was measured automatically at 30-min intervals using an Infinite M200 Pro plate reader (Tecan Life Sciences, Männedorf, Switzerland). […] They were cultivated for a further 15 h at 37°C and 5% CO2 in serial dilution before manual counting of the colonies on each plate.
Table S1. Detailed characterization of tested AMPs. M.c. were grown to an Optical Density (OD) 600nm of 0.6 in Brain Heart Infusion (BHI) Medium.
Upon dilution to OD600nm= 0.01, M.c. were incubated with declining amounts of indicated AMPs (25 μM to 0.048 μM at halving intervals) at 37°C with 5% CO2.
OD600nm was measured at 30 min intervals to establish the minimal inhibitory concentration (MIC). pI = isoelectric point, MW = molecular weight in kiloDalton.
MIC AMP name AMP class Organism Amino Acid Sequence pIMWPurity Retention time [min] modification
0.195 µM Cecropin A α-helical Hyalophora cecropia […] 10.75 4.00 91.06 7.30 n-term. amidation
0.39 µM Sarcotoxin IA α-helical Sarcophaga peregrina […] 11.07 4.16 91.37 9.37 n-term. amidation
~ 25µM Stomoxyn α-helical Stomoxys calcitrans […] 11.26 4.40 95.34 10.08 n-term. amidation
~ 25µM Spinigerin linear Pseudacanthotermes spiniger […] 11.07 3.00 96.23 12.45 none
>25µM Apidaecin Ia proline-rich Apis mellifera GNNRPVYIPQPRPPHPRI 11.71 2.11 92.98 16.91 none
>25µM Drosocin proline-rich Drosophila melanogaster GKPRPYSPRPTSHPRPIRV 12.01 2.20 92.86 11.65 none
>25µM Pyrrhocoricin proline-rich Pyrrhocoris apterus […] 10.27 2.34 93.17 11.38 none
>25 µM Metalnikowin-1 proline-rich Palomena prasina […] 9.98 1.84 92.85 13.36 none
>25 µM Metalnikowin-2A proline-rich Palomena prasina […] 9.98 1.84 92.39 10.85 none
>25 µM Metchnikowin-1 proline-rich Drosophila melanogaster […] 10.74 3.03 99.06 11.50 none
>25 µM Metchnikowin-2 proline-rich Drolophila melanogaster […] 11.54 3.04 97.16 11.46 none
12.5 µM Defensin 1 disulfide stabilized Tribolium castaneum […] 9.7 4.83 90.53 18.41 none
~ 25 µM Cecropin-like α-helical Lucilia sericata[…] 10.35 6.66 90.28 12.01 none
0.195 µM Cecropin α-helical Galleria mellonella […] 10.21 4.21 93.61 12.33 n-term. amidation
0.37 µM Cecropin α-helical Lucilia sericata […] 10.56 4.26 94.31 10.83 n-term. amidation
12.5 µM Stomoxyn α-helical Lucilia sericata […] 10.73 4.38 90.37 13.35n-term. amidation n-term.
1.56 µM Cecropin(Sarcotoxin) α-helical Eristalis tenax […] 10.56 4.14 90.80 9.76 none

| Compound | MIC (minimal inhibitory concentration) |
| --- | --- |
| DLRFLYPRGKLPVPTPPPFNPKPIYIDMGNRY [Lebocin-1] | > 25 µM |
| FVPYNPPRPGQSKPFPSFPGHGPFNPKIQWPYPLPNPGH [Abaecin] | > 25 µM |
| GFRKRFNKLVKKVKHTIKETANVSKDVAIVAGSGVAVGAAMG-NH2 [Stomoxyn (Lucilia sericata)] | 12.5 µM |
| GGLKKLGKKLEGAGKRVFNAAEKALPVVAGAKALRK [Cecropin A (Aedes aegypti)] | 1.56 µM |
| GKPRPYSPRPTSHPRPIRV [Drosocin] | > 25 µM |
| GNNRPVYIPQPRPPHPRI [Apidaecin Ia] | > 25 µM |
| GRPNPVNNKPTPHPRL [Formaecin-1] | > 25 µM |
| HRHQGPIFDTRPSPFNPNQPRPGPIY [Metchnikowin-1] | > 25 µM |
| HRRQGPIFDTRPSPFNPNQPRPGPIY [Metchnikowin-2] | > 25 µM |
| HVDKKVADKVLLLKQLRIMRLLTRL [Spinigerin] | ~ 25 µM |
| KWKIFKKIEKAGRNIRDGIIKAGPAVSVVGEAATIYKTG-NH2 [Cecropin (Galleria mellonella)] | 0.195 µM |
| KWKLFKKIEKVGQNIRDGIIKAGPAVAVVGQATQIAK-NH2 [Cecropin A (Hyalophora cecropia)] | 0.195 µM |
| VDKPDYRPRPRPPNM [Metalnikowin-1] | > 25 µM |
| VDKPDYRPRPWPRPN [Metalnikowin-2A] | > 25 µM |

Same assay, conditions: M. catarrhalis grown to OD600 0.6 in BHI, diluted to OD600 0.01; AMP 25 µM to 0.048 µM at halving intervals; 37°C, 5% CO2; OD600 every 30 min

| Compound | MIC (minimal inhibitory concentration) |
| --- | --- |
| CC[C@H](C)[C@H](NC(=O)CNC(=O)[C@H](CC(C)C)NC(=O)CNC(=O)[C@H](CCC(N)=O)NC(=O)[C@@H](NC(=O)[C@@H](NC(=O)[C@H](C)NC(=O)[C@H](CC(=O)O)NC(=O)[C@H](CCCNC(=N)N)NC(=O)[C@@H](NC(=O)[C@H](Cc1c[nH]cn1)NC(=O)[C@H](CCC(N)=O)NC(=O)CNC(=O)[C@@H](NC(=O)[C@H](CCCNC(=N)N)NC(=O)[C@H](CCC(=O)O)NC(=O)[C@@H](NC(=O)[C@H](CCCCN)NC(=O)[C@H](CCCCN)NC(=O)CNC(=O)[C@@H](NC(=O)[C@H](CCCCN)NC(=O)[C@H](CCCCN)NC(=O)[C@H](CC(C)C)NC(=O)[C@H](Cc1c[nH]c2ccccc12)NC(=O)CN)[C@@H](C)CC)[C@@H](C)CC)C(C)C)[C@@H](C)O)[C@@H](C)O)[C@@H](C)CC)C(=O)N[C@@H](C)C(=O)N[C@@H](CCC(N)=O)C(=O)N[C@@H](CCC(N)=O)C(=O)N[C@@H](C)C(=O)N[C@@H](C)C(=O)N[C@@H](CC(N)=O)C(=O)N[C@H](C(=O)N[C@@H](C)C(=O)N[C@@H](C)C(=O)N[C@H](C(=O)N[C@@H](C)C(=O)N[C@@H](CCCNC(=N)N)C(N)=O)[C@@H](C)O)C(C)C [Sarcotoxin IA] | 0.39 µM (≈ 1.62 µg/mL) |
| GFLKKIGKKLEGAVQRTRDATIQTIAVAQAAANVAATAKQ [Cecropin(Sarcotoxin)] | 1.56 µM |
| GWLKKIGKKIERVGQHTRDATIQTIGVAQQAANVAATLKG-NH2 [Sarcotoxin 1 C] | 0.37 µM |
| RGFRKHFNKLVKKVKHTISETAHVAKDTAVIAGSGAAVVAAT-NH2 [Stomoxyn (Stomoxys calcitrans)] | ~ 25 µM |
| SIGSAFKKALPVAKKIGKAALPIAKAALP [Ceratotoxin] | > 25 µM |
| VDKGSYLPRPTPPRPIYNRN [Pyrrhocoricin] | > 25 µM |

System: not given
Details: cited from earlier work

| Compound | cardiotoxicity |
| --- | --- |
| GWLKKIGKKIERVGQHTRDATIQTIGVAQQAANVAATLKG-NH2 [Sarcotoxin 1 C] | no cytotoxicity or cardiotoxicity |

System: not given
Details: cited from earlier work
Remark: another data set of the same source
From the text: We furthermore tested the effect of defensin 1 and sarcotoxin 1 C on the commensals E. faecalis and E. coli. Selectivity of AMPs may provide an important therapeutic advantage over broad-spectrum antibiotics because AMPs targeting pathogens but not commensals would avoid the common side effects of antibiotic therapy. […] Sarcotoxin 1 C was previously shown to inhibit 90% of clinical multidrug-resistant isolates of Ent ...

| Compound | broad-panel off-target profile | cytotoxicity | in vitro therapeutic index |
| --- | --- | --- | --- |
| GWLKKIGKKIERVGQHTRDATIQTIGVAQQAANVAATLKG-NH2 [Sarcotoxin 1 C] | inconspicuous | no cytotoxicity | good |
